Source: PubChem BioAssay AID248 (DTP/NCI, 2004)
Where “and” joins values, the source holds several entries; their conditions need not be identical. Identical values can stand only once. Inconclusive results and toxic doses are left out. No stated cut-off is given here; in the data, active means T/C of 150% or more; inactive means T/C below 125%.

Test system: L1210 leukemia ip in BDF1 mice, survival T/C
Assay: NCI In Vivo Anticancer Drug Screen. Data for tumor model L1210 Leukemia (intraperitoneal) in B6D2F1 (BDF1) mice
Conditions: endpoint: mean survival time, higher = longer survival
Outline: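 Read-out is survival time, reported as the treated-group measurement over the vehicle-control measurement.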

[1] = dose: 100.0 mg/kg/injection, schedule: Q01DX009 (ip), vehicle: saline with Tween-80
[2] = dose: 200.0 mg/kg/injection, schedule: Q01DX009 (ip), vehicle: saline with Tween-80
[3] = dose: 100.0 mg/kg/injection, schedule: Q01DX009 (ip), vehicle: Klucel (hydroxypropylcellulose) (HPC)
[4] = dose: 100.0 mg/kg/injection, schedule: Q04DX003 (ip), vehicle: Klucel (hydroxypropylcellulose) (HPC)
[5] = dose: 200.0 mg/kg/injection, schedule: Q01DX009 (ip), vehicle: Klucel (hydroxypropylcellulose) (HPC)
[6] = dose: 200.0 mg/kg/injection, schedule: Q04DX003 (ip), vehicle: Klucel (hydroxypropylcellulose) (HPC)
[7] = dose: 400.0 mg/kg/injection, schedule: Q01DX009 (ip), vehicle: Klucel (hydroxypropylcellulose) (HPC)
[8] = dose: 400.0 mg/kg/injection, schedule: Q04DX003 (ip), vehicle: Klucel (hydroxypropylcellulose) (HPC)
[9] = dose: 100.0 mg/kg/injection, schedule: Q04DX003 (ip), vehicle: saline with Tween-80
[10] = dose: 100.0 mg/kg/injection, schedule: Q04DX003 (ip), vehicle: saline
[11] = dose: 200.0 mg/kg/injection, schedule: Q04DX003 (ip), vehicle: saline
[12] = dose: 100.0 mg/kg/injection, schedule: Q01DX001 (ip), vehicle: Klucel (hydroxypropylcellulose) (HPC)
[13] = dose: 200.0 mg/kg/injection, schedule: Q01DX001 (ip), vehicle: Klucel (hydroxypropylcellulose) (HPC)
[14] = dose: 400.0 mg/kg/injection, schedule: Q01DX001 (ip), vehicle: Klucel (hydroxypropylcellulose) (HPC)

Measured: T/C

CC(NC(=O)c1ccccc1)C(=O)Nc1ccccc1 (stereo not drawn)
inactive: dose: 100.0 mg/kg/injection, schedule: Q04DX002 (ip), vehicle: Klucel (hydroxypropylcellulose) (HPC) 101 % of control | dose: 200.0 mg/kg/injection, schedule: Q04DX002 (ip), vehicle: Klucel (hydroxypropylcellulose) (HPC) 114 % of control | dose: 400.0 mg/kg/injection, schedule: Q04DX002 (ip), vehicle: Klucel (hydroxypropylcellulose) (HPC) 108 % of control

Cc1ccc(SCc2c(COc3ccc(Cl)cc3)sc3ccc(Cl)cc23)cc1
inactive: [1] 102 % of control | [2] 119 % of control | dose: 400.0 mg/kg/injection, schedule: Q01DX009 (ip), vehicle: saline with Tween-80 97 % of control

Cc1cccc(C)c1NC(=O)c1cccc(C(=O)Nc2c(C)cccc2C)c1
inactive: [3] 98 % of control | [4] 96 % of control | [5] 111 % of control | [6] 87 % of control | [7] 105 % of control | [8] 86 % of control

C=COC(=O)NC(CCC(=O)OC)C(=O)O (stereo not drawn)
inactive: dose: 100.0 mg/kg/injection, schedule: Q01DX001 (ip), vehicle: saline 92 % of control | dose: 200.0 mg/kg/injection, schedule: Q01DX001 (ip), vehicle: saline 101 % of control

O=C(CCC1CCCC1)c1ccccc1
inactive: dose: 12.5 mg/kg/injection, schedule: Q04DX002 (ip), vehicle: saline 100 % of control | dose: 25.0 mg/kg/injection, schedule: Q04DX002 (ip), vehicle: saline 98 % of control | dose: 50.0 mg/kg/injection, schedule: Q04DX002 (ip), vehicle: saline 98 % of control | dose: 100.0 mg/kg/injection, schedule: Q04DX002 (ip), vehicle: saline 98 % of control | dose: 200.0 mg/kg/injection, schedule: Q04DX002 (ip), vehicle: saline 98 % of control | dose: 400.0 mg/kg/injection, schedule: Q04DX002 (ip), vehicle: saline 91 % of control

C/C(=N/N)c1ccc(Br)cc1
inactive: dose: 3.7 mg/kg/injection, schedule: Q01DX009 (ip), vehicle: saline 107 % of control | dose: 5.0 mg/kg/injection, schedule: Q01DX001 (ip), vehicle: saline 94 % of control | dose: 7.5 mg/kg/injection, schedule: Q01DX009 (ip), vehicle: saline 119 % of control | dose: 10.0 mg/kg/injection, schedule: Q01DX001 (ip), vehicle: saline 97 % of control | dose: 20.0 mg/kg/injection, schedule: Q01DX001 (ip), vehicle: saline 113 % of control | dose: 25.0 mg/kg/injection, schedule: Q04DX003 (ip), vehicle: saline with Tween-80 105 % of control | dose: 40.0 mg/kg/injection, schedule: Q01DX001 (ip), vehicle: saline 122 % of control | dose: 50.0 mg/kg/injection, schedule: Q04DX003 (ip), vehicle: saline with Tween-80 110 % of control | dose: 80.0 mg/kg/injection, schedule: Q01DX001 (ip), vehicle: saline 105 % of control | [9] 93 % of control

COc1cccc(/C=C/[N+](=O)[O-])c1OC
inactive: dose: 17.5 mg/kg/injection, schedule: Q01DX009 (ip), vehicle: saline with Tween-80 90 % of control | dose: 35.0 mg/kg/injection, schedule: Q01DX009 (ip), vehicle: saline with Tween-80 101 % of control | dose: 50.0 mg/kg/injection, schedule: Q01DX001 (ip), vehicle: other 103 % of control | dose: 50.0 mg/kg/injection, schedule: Q01DX009 (ip), vehicle: saline 107 % of control | dose: 70.0 mg/kg/injection, schedule: Q01DX009 (ip), vehicle: saline with Tween-80 95 % of control | dose: 100.0 mg/kg/injection, schedule: Q01DX001 (ip), vehicle: other 97 % of control | [10] 108 % of control | dose: 200.0 mg/kg/injection, schedule: Q01DX001 (ip), vehicle: other 103 % of control | [11] 100 % of control

CCCCOC(=O)c1ccc(OC(=O)NC(C)(C)C)cc1
inactive: dose: 25.0 mg/kg/injection, schedule: Q04DX003 (ip), vehicle: gum acacia 102 % of control and 90 % of control | dose: 50.0 mg/kg/injection, schedule: Q04DX003 (ip), vehicle: gum acacia 94 % of control and 102 % of control | dose: 100.0 mg/kg/injection, schedule: Q01DX001 (ip), vehicle: gum acacia 105 % of control | dose: 100.0 mg/kg/injection, schedule: Q04DX003 (ip), vehicle: gum acacia 98 % of control and 100 % of control | dose: 200.0 mg/kg/injection, schedule: Q01DX001 (ip), vehicle: gum acacia 95 % of control | dose: 400.0 mg/kg/injection, schedule: Q01DX001 (ip), vehicle: gum acacia 103 % of control

O=C(/C=C/c1cccnc1)NCC(O)CO (stereo not drawn)
inactive: dose: 100.0 mg/kg/injection, schedule: Q01DX009 (ip), vehicle: saline 101 % of control | [10] 108 % of control | dose: 200.0 mg/kg/injection, schedule: Q01DX009 (ip), vehicle: saline 97 % of control | [11] 105 % of control | dose: 400.0 mg/kg/injection, schedule: Q01DX009 (ip), vehicle: saline 100 % of control | dose: 400.0 mg/kg/injection, schedule: Q04DX003 (ip), vehicle: saline 96 % of control

CC1(C)Oc2nc(N)nc(N)c2C1c1ccc(Cl)cc1 (stereo not drawn)
inactive: [4] 106 % of control | [6] 97 % of control | [8] 103 % of control

Cc1ccc(N2C(=O)CNC2=O)cc1
inactive: [12] 101 % of control | [13] 101 % of control | [14] 96 % of control

O=C1NCC(Nc2ccc(Br)cc2Cl)C(=O)N1 (stereo not drawn)
inactive: dose: 100.0 mg/kg/injection, schedule: Q01DX Z (ip), vehicle: methylcellulose (MC) 96 % of control | dose: 200.0 mg/kg/injection, schedule: Q01DX Z (ip), vehicle: methylcellulose (MC) 90 % of control

CCCC1(C)COB(c2ccc(C)cc2)OC1
inactive: dose: 25.0 mg/kg/injection, schedule: Q01DX009 (ip), vehicle: Klucel (hydroxypropylcellulose) (HPC) 102 % of control | dose: 50.0 mg/kg/injection, schedule: Q01DX009 (ip), vehicle: Klucel (hydroxypropylcellulose) (HPC) 105 % of control | dose: 50.0 mg/kg/injection, schedule: Q04DX003 (ip), vehicle: Klucel (hydroxypropylcellulose) (HPC) 92 % of control | [3] 114 % of control | [4] 101 % of control | [5] 122 % of control | [6] 92 % of control | [7] 88 % of control | [8] 95 % of control

CCCCCC(C)NCCOC(=O)c1ccc(N)cc1 (stereo not drawn)
inactive: dose: 75.0 mg/kg/injection, schedule: Q01DX001 (ip), vehicle: other 98 % of control

COc1ccc2ccccc2n1
inactive: [12] 94 % of control | [1] 103 % of control | [9] 103 % of control | [13] 102 % of control | [2] 90 % of control | dose: 200.0 mg/kg/injection, schedule: Q04DX003 (ip), vehicle: saline with Tween-80 98 % of control | [14] 105 % of control

COc1ccc(OC)c(NC(=O)Nc2cc(Cl)ccc2C)c1
inactive: [3] 89 % of control | [5] 93 % of control
